Results on two compounds are retold here after publication PMC9240326, “BacPROTACs mediate targeted protein degradation in bacteria” (Cell, 2022).

pKd: −log10 of the molar value. Where a SMILES comes first, the peptide text is derived from it. [ ]: non-standard residue; d: D form. Phe(βR-OMe) = CO[C@H](c1ccccc1)[C@H](N)C(=O)O; NMeL = CN[C@@H](CC(C)C)C(=O)O; NMeK = CN[C@@H](CCCCN)C(=O)O

A word on the pKd: it is −log10 of the Kd, conventionally taken in molar units.

The target in one data set is BRDTBD1 (Homo sapiens, UniProt Q58F21). In words: Wes analysis of BRDTBD1 levels in M. smegmatis. It is filed as cell-based. As to conditions: 30 min of incubation, relative to DMSO.
The nature of data set [1]: Solubility in aqueous solutions (remark in ITC method). It is filed as physicochemical. (In ITC the heat of successive injections is recorded.)
In another data set the target is ClpC1NTD (Mycolicibacterium smegmatis, UniProt A0R574). Nature of the data set: biochemical. It is filed as binding, Mycobacterium smegmatis.
Sequence of ClpC1NTD (A0R574 1-148 limits assumed): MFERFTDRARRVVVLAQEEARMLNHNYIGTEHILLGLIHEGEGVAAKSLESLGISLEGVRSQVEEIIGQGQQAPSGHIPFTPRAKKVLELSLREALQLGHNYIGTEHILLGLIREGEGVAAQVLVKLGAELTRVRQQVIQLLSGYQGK
The target in data set [2] is B. subtilis ClpCP protease (Bacillus subtilis, UniProt P37571). It is filed as biochemical.
Sequence of B. subtilis ClpCP protease (P80244 whole entry): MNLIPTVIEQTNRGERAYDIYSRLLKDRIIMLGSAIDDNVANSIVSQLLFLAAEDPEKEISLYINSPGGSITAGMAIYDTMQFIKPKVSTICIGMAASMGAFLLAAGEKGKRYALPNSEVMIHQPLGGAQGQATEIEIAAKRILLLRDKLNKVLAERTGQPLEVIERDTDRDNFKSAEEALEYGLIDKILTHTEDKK
Sequence of B. subtilis ClpCP protease (P37571 whole entry): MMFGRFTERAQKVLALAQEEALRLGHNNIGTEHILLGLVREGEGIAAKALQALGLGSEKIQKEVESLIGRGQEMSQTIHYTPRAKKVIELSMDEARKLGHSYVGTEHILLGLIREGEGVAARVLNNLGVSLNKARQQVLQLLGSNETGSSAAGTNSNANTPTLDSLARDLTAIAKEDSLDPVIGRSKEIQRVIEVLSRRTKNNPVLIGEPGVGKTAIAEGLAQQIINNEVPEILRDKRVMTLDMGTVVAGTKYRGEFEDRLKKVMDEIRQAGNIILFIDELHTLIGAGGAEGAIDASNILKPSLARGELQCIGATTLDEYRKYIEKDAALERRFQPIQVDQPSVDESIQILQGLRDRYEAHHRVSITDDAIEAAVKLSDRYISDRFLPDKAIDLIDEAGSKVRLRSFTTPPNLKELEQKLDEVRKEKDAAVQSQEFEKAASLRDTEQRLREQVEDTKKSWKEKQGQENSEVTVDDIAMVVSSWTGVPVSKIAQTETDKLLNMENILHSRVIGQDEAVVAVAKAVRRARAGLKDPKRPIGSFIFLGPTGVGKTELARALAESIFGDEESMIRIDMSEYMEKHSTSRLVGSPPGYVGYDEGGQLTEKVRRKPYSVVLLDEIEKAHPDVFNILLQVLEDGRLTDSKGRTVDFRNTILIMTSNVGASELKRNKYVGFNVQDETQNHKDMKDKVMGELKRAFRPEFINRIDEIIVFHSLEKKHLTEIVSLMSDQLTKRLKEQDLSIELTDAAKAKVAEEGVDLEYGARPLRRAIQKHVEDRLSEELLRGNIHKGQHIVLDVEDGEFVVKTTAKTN

With `CC[C@H](C)[C@@H]1NC(=O)[C@H](CC(C)C)N(C)C(=O)[C@H](C(C)C)NC(=O)[C@H]([C@H](OC)c2ccccc2)NC(=O)[C@H](C)NC(=O)[C@H](CCCCN)N(C)C(=O)[C@H](Cc2c[nH]c3ccccc23)NC1=O` [sCym-1] (cyclo(W[NMeK]A[Phe(βR-OMe)]V[NMeL]I)), the “BRDTBD1 levels in M. smegmatis (Wes)” value on BRDTBD1 is listed as “did not significantly alter BRDTBD1 levels”. The “Solubility in aqueous solutions” value in data set [1] was “low solubility”. For the same compound, the negative-log Kd (pKd) on ClpC1NTD was 6.09.

Consider `CC(=O)NC(CCCNC(=N)N)C(=O)NCCOCCOCCC(=O)NCCOCCOCCC(=O)NCCOCCOCCC(=O)NC(CCCCNC(=O)CCCCC1SCC2NC(=O)NC21)C(N)=O` (stereo not shown) [BacPROTAC-1c], for which, in data set [2], the “mSA-Kre degradation by ClpCP, BacPROTAC-1 analogs” value is given as “did not induce substrate degradation”.
